Values after ≈ are worked out from the molar mass of the structure shown.
Key:
[1] = test system: HT-29; test: Cytotoxicity against human HT-29 cells by MTT assay; assay type: functional, cell-based
[2] = test system: A549; test: Cytotoxicity against human A549 cells by MTT assay; assay type: functional, cell-based

SMILES	IC50 [1] [µg/mL]	IC50 [2] [µg/mL]
COc1cc(C2CC(O)CC(C(O)Cc3ccc(O)cc3)O2)ccc1O (configuration not stated)	> 50	> 50
COc1cc(CC/C=C/C(=O)CCc2ccc(O)cc2)ccc1O	8.2 (≈ 25.1 µM)	5.4 (≈ 16.5 µM)
COc1cc2ccc1Oc1cc(ccc1O)CCC(=O)CCCC2	5.3 (≈ 16.2 µM)	2.2 (≈ 6.74 µM)
CC(C)(O)[C@@H]1CC[C@@]2(C)CCC[C@@](C)(O)[C@@H]2C1	12.9 (≈ 53.7 µM)	9.9 (≈ 41.2 µM)
COc1ccc2cc1Oc1ccc(c(O)c1OC)CCCCC(O)CC2 (configuration not stated)	23.9 (≈ 66.7 µM)	11.5 (≈ 32.1 µM)
COC(=O)C(O)(c1cc2c(c3oc([C@]4(C)C[C@@H]4C)cc(=O)c13)C(=O)c1c(ccc([C@H]3C[C@](C)(N(C)C)[C@H](O[C@@H]4C[C@H](OC)[C@H](O)[C@@H](C)O4)[C@H](C)O3)c1O)C2=O)[C@H]1O[C@H](C)[C@@H](O)[C@@H](OC)[C@@H]1O (some centres not stated) [ALTROMYCIN B]	3.9 (≈ 4.22 µM)	4.2 (≈ 4.55 µM)
